pEC50: −log10 of the molar value. Counter-ions that a name gives are not always drawn. Like-named read-outs stand apart in the source and are kept apart here.
Columns and labels:
IL-23p19 = experiment: LPS induced IL23p19 in THP-1 cells (with IFNγ primed) assay; format: cell-based, Human; conditions: for pEC50: THP-1 cells, IFNγ primed, LPS 1 ug/mL, 18 hours, 10 pt, read-out: IL23-p19 ELISA, THP1-IFNy, LPS, 10 pt EC50
Procedure, shortened: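 THP-1 cells primed ~18 h with IFNγ (50 ng/mL), pre-incubated 1 h with compound at 37 °C, then stimulated 18 h with LPS (1 ug/mL final). Supernatant IL-23p19 measured by sandwich ELISA with chemiluminescent read-out; EC50 from curve fitting. Toxicity checked on the remaining cells by Cell Titer Glo.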

IL-23 (p19/p40) = experiment: IL23-p19 ELISA, Dendritic, LPS (compound screening using DC cells); format: cell-based, Human; conditions: for pEC50: PBMC-derived DC cells, IFNγ primed, LPS 1 μg/ml, 18 hours, 10 pt, read-out: IL23-p19 ELISA, Dendritic, LPS, 10 pt, EC50
Procedure, shortened: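 Human PBMC-derived dendritic cells (7 d GM-CSF 100 ng/ml + IL-4 20 ng/ml), primed 24 h with IFNγ 50 ng/ml, pre-incubated 1 h with compound, then stimulated 18 h with LPS 1 μg/ml. Supernatant IL-23 measured by p19-capture/p40-detection chemiluminescent ELISA; CellTiter Glo checks cytotoxicity.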

Structure (SMILES) | pEC50 (IL-23p19; Homo sapiens, THP-1, 18 h) | pEC50 (IL-23 (p19/p40); Homo sapiens, 18 h) | further results
CC(C)(C)OC(=O)N1CC(n2cc(NC(=O)c3ccc(-c4cn[nH]c4)o3)c(-c3ccccn3)n2)C1 [Compound I-70, tert-Butyl-3-[4-{5-(1H-pyrazole-4-yl)furan-2-carboxamido}-3-(pyridine-2-yl)-1H-pyrazol-1-yl]azetidine-1-carboxylate, formate salt] |  |  | pEC50 (IL-23p19; formate salt): 6.44; pEC50 (IL-23 (p19/p40); formate salt): 7.55
COC1CC(n2cc(NC(=O)c3ccc(-c4cn[nH]c4)o3)c(-c3ccccn3)n2)C1 (stereo not drawn) [Compound I-72, N-{1-(3-Methoxycyclobutyl)-3-(pyridine-2-yl)-1H-pyrazol-4-yl}-5-(1H-pyrazol-4-yl)furan-2-carboxamide, Cis isomer] |  |  | pEC50 (IL-23p19): 7.25; pEC50 (IL-23 (p19/p40)): 8.30
CCO[C@H]1C[C@@H](n2cc(NC(=O)c3ccc(-c4cn[nH]c4)o3)c(-c3ccccn3)n2)C1 [Compound I-28, N-(1-((1,3-cis)-3-ethoxycyclobutyl)-3-(pyridin-2-yl)-1H-pyrazol-4-yl)-5-(1H-pyrazol-4-yl)furan-2-carboxamide] | 7.30 | 7.66 | 
CC(C)(C)OC(=O)N1CC(n2cc(NC(=O)c3ccc(-c4cn[nH]c4)o3)c(-c3ccccn3)n2)C1 [Compound I-74, tert-Butyl-3-[4-{5-(1H-pyrazole-4-yl)furan-2-carboxamido}-3-(pyridine-2-yl)-1H-pyrazol-1-yl]azetidine-1-carboxylate] |  |  | pEC50 (IL-23p19): 6.82; pEC50 (IL-23 (p19/p40)): 6.88
O=C(Nc1c[nH]nc1-c1ccccn1)c1ccc(-c2cn[nH]c2)o1 [Compound I-47, 5-(1H-pyrazol-4-yl)-N-(3-(pyridin-2-yl)-1H-pyrazol-4-yl)furan-2-carboxamide] | 6.41 | 6.49 | 
CCO[C@H]1C[C@@H](n2cc(NC(=O)c3ccc(-c4cn[nH]c4)o3)c(-c3cccc(F)n3)n2)C1 [Compound I-144, N-(1-((1s,3s)-3-ethoxycyclobutyl)-3-(6-fluoropyridin-2-yl)-1H-pyrazol-4-yl)-5-(1H-pyrazol-4-yl)furan-2-carboxamide formate] | 7.11 | 7.46 | 
CCO[C@H]1C[C@@H](n2cc(NC(=O)c3csc(-c4cnn(COP(=O)(O)O)c4)n3)c(-c3ccccn3)n2)C1 [II-16, (4-(4-((1-((1,3-cis)-3-ethoxycyclobutyl)-3-(pyridin-2-yl)-1H-pyrazol-4-yl)carbamoyl)thiazol-2-yl)-1H-pyrazol-1-yl)methyl phosphate bis-sodium salt] |  |  | pEC50 (IL-23p19; phosphate bis-sodium salt): 6.92; pEC50 (IL-23 (p19/p40); phosphate bis-sodium salt): 6.28
CCO[C@@H]1CC[C@H](n2cc(NC(=O)c3ccc(-c4cn[nH]c4)o3)c(-c3ccccn3)n2)C1 [Compound I-133, N-(1-((1S,3R)-3-ethoxycyclopentyl)-3-(pyridin-2-yl)-1H-pyrazol-4-yl)-5-(1H-pyrazol-4-yl)furan-2-carboxamide] |  |  | pEC50 (IL-23p19): 7.09; pEC50 (IL-23 (p19/p40)): 6.41
COCCn1cc(NC(=O)c2ccc(-c3c[nH]nc3C)o2)c(-c2ccccn2)n1 [Compound I-6, N-(1-(2-methoxyethyl)-3-(pyridin-2-yl)-1H-pyrazol-4-yl)-5-(3-methyl-1H-pyrazol-4-yl)furan-2-carboxamide formic acid] | 6.58 |  | pEC50 (IL-23 (p19/p40); formic acid): 6.00
CCO[C@H]1C[C@@H](n2cc(NC(=O)c3ccc(-c4cn[nH]c4)o3)c(-c3ncccc3F)n2)C1 [Compound I-142, N-(1-((1s,3s)-3-ethoxycyclobutyl)-3-(3-fluoropyridin-2-yl)-1H-pyrazol-4-yl)-5-(1H-pyrazol-4-yl)furan-2-carboxamide formate] | 7.16 | 7.58 | 
Cn1cc(-c2ccc(C(=O)Nc3cn(C4COC4)nc3-c3ccccn3)o2)cn1 [Compound I-26, 5-(1-methyl-1H-pyrazol-4-yl)-N-(1-(oxetan-3-yl)-3-(pyridin-2-yl)-1H-pyrazol-4-yl)furan-2-carboxamide] | 5.88 | 6.56 | 
COCCn1cc(NC(=O)c2ccc(-c3cnn(COP(=O)(O)O)c3)o2)c(-c2ccccn2)n1 [Compound I-12, (4-(5-((1-(2-methoxyethyl)-3-(pyridin-2-yl)-1H-pyrazol-4-yl)carbamoyl)furan-2-yl)-1H-pyrazol-1-yl)methyl dihydrogen phosphate] | 6.23 | 5.98 | 
COCCn1cc(NC(=O)c2ccc(-c3cnn(COP(=O)(O)O)c3)o2)c(-c2ccccn2)n1 [Compound I-14, sodium (4-(5-((1-(2-methoxyethyl)-3-(pyridin-2-yl)-1H-pyrazol-4-yl)carbamoyl)furan-2-yl)-1H-pyrazol-1-yl)methyl phosphate] |  |  | EC50 (IL-23p19; Homo sapiens, THP-1, 18 h, read-out: IL23-p19 ELISA, THP1-IFNy, LPS, 10 pt EC50 (μM)): 1.25 µM; EC50 (IL-23 (p19/p40); Homo sapiens, 18 h, read-out: IL23-p19 ELISA, Dendritic, LPS, 10 pt, EC50 (μM)): 0.571 µM
COCCn1cc(NC(=O)c2ccc(-c3cnn(C(=O)OC4(C)CC4)c3)o2)c(-c2ccccn2)n1 [Compound I-21, 1-methylcyclopropyl 4-(5-((1-(2-methoxyethyl)-3-(pyridin-2-yl)-1H-pyrazol-4-yl)carbamoyl)furan-2-yl)-1H-pyrazole-1-carboxylate] | 6.70 | 6.34 | 
CC(C)(O)Cn1cc(NC(=O)c2ccc(-c3cn[nH]c3)o2)c(-c2ccccn2)n1 [Compound I-3, N-(1-(2-hydroxy-2-methylpropyl)-3-(pyridin-2-yl)-1H-pyrazol-4-yl)-5-(1H-pyrazol-4-yl)furan-2-carboxamide] | 6.37 | 6.44 | 

More lines, main results first:

pEC50 (IL-23p19; Homo sapiens, THP-1, 18 h) | pEC50 (IL-23 (p19/p40); Homo sapiens, 18 h) | Structure (SMILES) | further results
7.07 | 6.35 | O=C(Nc1cn(CCOCC(F)(F)F)nc1-c1ccccn1)c1coc(-c2cc[nH]n2)n1 [III-7, 2-(1H-pyrazol-3-yl)-N-(3-(pyridin-2-yl)-1-(2-(2,2,2-trifluoroethoxy)ethyl)-1H-pyrazol-4-yl)oxazole-4-carboxamide] | 
6.50 | 6.24 | CCOCCn1cc(NC(=O)c2csc(-c3c[nH]nc3C)n2)c(-c2ccccn2)n1 [II-21, N-(1-(2-ethoxyethyl)-3-(pyridin-2-yl)-1H-pyrazol-4-yl)-2-(3-methyl-1H-pyrazol-4-yl)thiazole-4-carboxamide, formic acid salt] | 
7.51 | 7.49 | O=C(Nc1cn(C2CCC3(CC2)OCCO3)nc1-c1ncccc1F)c1csc(-c2cn[nH]c2)n1 [II-140, N-(3-(3-fluoropyridin-2-yl)-1-(1,4-dioxaspiro[4.5]decan-8-yl)-1H-pyrazol-4-yl)-2-(1H-pyrazol-4-yl)thiazole-4-carboxamide] | 
5.94 | 5.61 | CCN(CC)C(=O)n1cc(NC(=O)c2csc(-c3cn[nH]c3)n2)c(-c2ccccn2)n1 [II-128, N-(1-(diethylcarbamoyl)-3-(pyridin-2-yl)-1H-pyrazol-4-yl)-2-(1H-pyrazol-4-yl)thiazole-4-carboxamide] | 
6.37 | 6.67 | CC(C)n1cc(NC(=O)c2csc(-c3cn[nH]c3)n2)c(-c2ccccn2)n1 [II-59, N-(1-isopropyl-3-(pyridin-2-yl)-1H-pyrazol-4-yl)-2-(1H-pyrazol-4-yl)thiazole-4-carboxamide] | 
7.64 | 7.45 | O=C(Nc1cn([C@H]2C[C@@H](O)C2)nc1-c1cnccn1)c1csc(-c2cn[nH]c2)n1 [II-101, N-(1-((1,3-cis)-3-hydroxycyclobutyl)-3-(pyrazin-2-yl)-1H-pyrazol-4-yl)-2-(1H-pyrazol-4-yl)thiazole-4-carboxamide] | 
6.75 | 6.66 | CCO[C@H]1C[C@@H](n2cc(NC(=O)c3csc(-c4cn[nH]c4)n3)c(-c3cccc(C(F)(F)F)n3)n2)C1 [II-90, N-(1-((1,3-cis)-3-ethoxycyclobutyl)-3-(6-(trifluoromethyl)pyridin-2-yl)-1H-pyrazol-4-yl)-2-(1H-pyrazol-4-yl)thiazole-4-carboxamide] | 
6.89 | 6.89 | O=C(Nc1cn(CC2CCOCC2)nc1-c1ccccn1)c1csc(-c2cn[nH]c2)n1 [II-45, 2-(1H-pyrazol-4-yl)-N-(3-(pyridin-2-yl)-1-((tetrahydro-2H-pyran-4-yl)methyl)-1H-pyrazol-4-yl)thiazole-4-carboxamide formic acid salt] | 
7.19 | 7.46 | O=C(Nc1cn(C2CCOCC2)nc1-c1nccs1)c1csc(-c2cn[nH]c2)n1 [II-111, 2-(1H-pyrazol-4-yl)-N-(1-(tetrahydro-2H-pyran-4-yl)-3-(thiazol-2-yl)-1H-pyrazol-4-yl)thiazole-4-carboxamide] | 

Reference: patent publication US10208074B2, “Pyrazole compounds and method for making and using the compounds” (Rigel Pharmaceuticals, Inc., priority 2015, dated 2019)
